Measured values taken from patent publication US9562035B2, “Benzamide derivative useful as FASN inhibitors for the treatment of cancer” (Janssen Pharmaceutica NV, priority 2013, dated 2017).

Legend:
A2780 ovarian cells [1] = test: A2780 Ovarian Cell Proliferation Assay in Lipid Reduced Medium, with Palmitate (control); type: cell-based; conditions: Homo sapiens, A2780; lipid reduced medium, 25 μM palmitate, 96 h, MTT; read-out: Proliferation A2780 with Palmitate pIC50 (converted)
Method: (§1) The biological assays described below correspond to comparative assays for ovarian cell proliferation. […] Compounds active in the absence of palmitate would not be expected to be active in the control.
(§2) 2500 cells were seeded in a 96-well clear well plate in 200 μL RPMI1640 with 10% Fetal Calf Serum (Hyclone), and incubated at 37° C., 5% CO2. Blanks were wells without cells. The next day the culture medium was aspirated and replaced by 160 μL culture medium with 10% Lipid-Reduced Serum (LRS, Hyclone). 20 μL test compound (at concentrations of 30 μM, 10 μM, 3 μM, 1 μM, 0.30 μM, 0.10 μM, 0.03 μM and 0.01 μM)/DMSO dilution followed by 20 μL palmitate-BSA solution were added to a final concentrations of 0.2% DMSO, 25 μM palmitate (Sigma, P0500, 10 mM stock solution in ethanol) 0.2% fatty-acid-free BSA, 0.25% ethanol. After 96 h incubation, an MTT assay was performed. The absorbance was measured at 544 nm on a SPECTRAMAX.
A best fit curve was fitted by a minimum sum of squares method, plotting Controlmin versus test compound concentration. From the plot, an IC50 (concentration at which 50% inhibition is achieved) was calculated. pIC50 values, presented in the Table below, were calculated as −log(IC50).
(§3) Representative compounds of the present invention were tested according to the procedure as described in Biological Example 3 above, with results as listed in Table BIO-3, below.

A2780 ovarian cells [2] = test: A2780 Ovarian Cell Proliferation Assay in Lipid Reduced Medium, without Palmitate; type: cell-based; conditions: Homo sapiens, A2780; lipid reduced medium, without palmitate, 96 h, MTT; read-out: Proliferation A2780 w/o Palmitate pIC50 (converted)
Method: as §1
as §2, with “ethanol-BSA” for “palmitate-BSA”, “DMSO,” for “DMSO, 25 μM palmitate (Sigma, P0500, 10 mM stock solution in ethanol)”, “incubation” for “incubation,”
(§4) Raw data generated by the instrument were normalized to % Controlmin values, which were calculated as: % Controlmin=100*(x−mLC)/(mHC−mLC)
(§5) where mLC and mHC were the means of the low control wells and high control wells on the plate, after manual exclusion of outliers. A plot of Controlmin versus test compound concentration was fitted to a 4-parameter logistic curve using a non-linear least squares regression method. From the plot, an IC50 (concentration at which 50% inhibition is achieved) was calculated. pIC50 values were calculated as −log(IC50), when IC50 is expressed in molar units.
as §3

[3] = biological target: T1, hFASN enzyme (full length) (Homo sapiens, UniProt P49327); test: Fatty Acid Synthase (FASN) Inhibition Scintillation Proximity Assay; type: biochemical; conditions: for IC50: mean where tested more than once, ~ = standard error of pIC50 larger than 0.5; for inhibition at 10 µM: read-out: FASN % Effect @1E−05M
T1 construct: 10 μL hFASN enzyme (full length, 300 ng, purified in house); made in house
Method: In this assay, inhibition of FASN activity is measured using ^3H-acetyl-CoA and malonyl-CoA as substrates. ^3H-Acetyl CoA is converted to ^3H-palmitate through a series of reactions by the FASN protein, which contains 7 functional domains and carries out 7 enzymatic reactions to ultimately produce ^3H-palmitate. The assay principle is based upon the fact that ^3H-acetyl-CoA is hydrophilic and the end product, ^3H-palmitate is hydrophobic.
10 μL assay buffer (100 mM KH2PO4 pH 7.5, 1 mM DTT) (20 μL in blanks) was added to a 384-well white Opti Plate plate (Perkin Elmer). 0.9 μL test compound (at concentrations of 30 μM, 10 μM, 3 μM, 1 μM, 0.30 μM, 0.10 μM, 0.03 μM and 0.01 μM)/DMSO and 10 μL hFASN enzyme (full length, 300 ng, purified in house) or 10 μL assay buffer was added to the wells. Then 10 μL 450 μM NADPH (Sigma N7505), 18.75 μM [^3H]-acetyl-CoA (Perkin Elmer NET-290L), 150 μM malonyl-CoA (Sigma M4263) were added, mixed and incubated at room temperature for 60 minutes. The reaction was stopped by adding 20 μL Streptavidin coupled imaging beads (25 mg/ml). After incubation for 30 minutes at room temperature in the dark, the 384 well plate was centrifuged at 1500 rpm for 3 minutes and was measured after at least 24 hrs by the LEADseeker™, measuring emission using a 610±20 nm pass filter. (Bays, N. W., et al., “A simplified scintillation proximity assay for fatty acid synthase activity: development and comparison with other FAS activity assays”, J. Biomol. Screen, 2009, pp 636-642, Vol. 14(6).)
as §4, §5

[4] = biological target: T2, FASN Keto-reductase Domain (Homo sapiens, UniProt P49327); test: Fatty Acid Synthase Keto-Reductase Domain (FASN KR) Inhibition; type: biochemical; conditions: mean where tested more than once; read-out: FASN K-R Domain pIC50 (converted)
T2 construct: 10 μL hFASN enzyme (full length, 300 ng, purified in house) and 360 μM NADPH; made in house
Method: 10 μL assay buffer (100 mM KH2PO4 pH 7.5) was added to a 384-well clear plate (costar 3702). 0.3 μL compound (at concentrations of 30 μM, 10 μM, 3 μM, 1 μM, 0.30 μM, 0.10 μM, 0.03 μM and 0.01 μM)/DMSO, 10 μL hFASN enzyme (full length, 300 ng, purified in house) and 360 μM NADPH (except in blank) were then added. Then, 10 μL 180 mM ethyl acetoacetate (Aldrich 688983) was added, mixed and immediately thereafter, the absorbance at 340 nm (T1) by Multiscan (Labsystems) was measured. After 20 minutes incubation at room temperature the plate was measured again (T2).
The decrease in absorbance was calculated as (Absorbance before incubation T1)−(Absorbance following incubation T2).
as §4, §5

T2 sequence (P49327 whole entry, the tested form may be a part): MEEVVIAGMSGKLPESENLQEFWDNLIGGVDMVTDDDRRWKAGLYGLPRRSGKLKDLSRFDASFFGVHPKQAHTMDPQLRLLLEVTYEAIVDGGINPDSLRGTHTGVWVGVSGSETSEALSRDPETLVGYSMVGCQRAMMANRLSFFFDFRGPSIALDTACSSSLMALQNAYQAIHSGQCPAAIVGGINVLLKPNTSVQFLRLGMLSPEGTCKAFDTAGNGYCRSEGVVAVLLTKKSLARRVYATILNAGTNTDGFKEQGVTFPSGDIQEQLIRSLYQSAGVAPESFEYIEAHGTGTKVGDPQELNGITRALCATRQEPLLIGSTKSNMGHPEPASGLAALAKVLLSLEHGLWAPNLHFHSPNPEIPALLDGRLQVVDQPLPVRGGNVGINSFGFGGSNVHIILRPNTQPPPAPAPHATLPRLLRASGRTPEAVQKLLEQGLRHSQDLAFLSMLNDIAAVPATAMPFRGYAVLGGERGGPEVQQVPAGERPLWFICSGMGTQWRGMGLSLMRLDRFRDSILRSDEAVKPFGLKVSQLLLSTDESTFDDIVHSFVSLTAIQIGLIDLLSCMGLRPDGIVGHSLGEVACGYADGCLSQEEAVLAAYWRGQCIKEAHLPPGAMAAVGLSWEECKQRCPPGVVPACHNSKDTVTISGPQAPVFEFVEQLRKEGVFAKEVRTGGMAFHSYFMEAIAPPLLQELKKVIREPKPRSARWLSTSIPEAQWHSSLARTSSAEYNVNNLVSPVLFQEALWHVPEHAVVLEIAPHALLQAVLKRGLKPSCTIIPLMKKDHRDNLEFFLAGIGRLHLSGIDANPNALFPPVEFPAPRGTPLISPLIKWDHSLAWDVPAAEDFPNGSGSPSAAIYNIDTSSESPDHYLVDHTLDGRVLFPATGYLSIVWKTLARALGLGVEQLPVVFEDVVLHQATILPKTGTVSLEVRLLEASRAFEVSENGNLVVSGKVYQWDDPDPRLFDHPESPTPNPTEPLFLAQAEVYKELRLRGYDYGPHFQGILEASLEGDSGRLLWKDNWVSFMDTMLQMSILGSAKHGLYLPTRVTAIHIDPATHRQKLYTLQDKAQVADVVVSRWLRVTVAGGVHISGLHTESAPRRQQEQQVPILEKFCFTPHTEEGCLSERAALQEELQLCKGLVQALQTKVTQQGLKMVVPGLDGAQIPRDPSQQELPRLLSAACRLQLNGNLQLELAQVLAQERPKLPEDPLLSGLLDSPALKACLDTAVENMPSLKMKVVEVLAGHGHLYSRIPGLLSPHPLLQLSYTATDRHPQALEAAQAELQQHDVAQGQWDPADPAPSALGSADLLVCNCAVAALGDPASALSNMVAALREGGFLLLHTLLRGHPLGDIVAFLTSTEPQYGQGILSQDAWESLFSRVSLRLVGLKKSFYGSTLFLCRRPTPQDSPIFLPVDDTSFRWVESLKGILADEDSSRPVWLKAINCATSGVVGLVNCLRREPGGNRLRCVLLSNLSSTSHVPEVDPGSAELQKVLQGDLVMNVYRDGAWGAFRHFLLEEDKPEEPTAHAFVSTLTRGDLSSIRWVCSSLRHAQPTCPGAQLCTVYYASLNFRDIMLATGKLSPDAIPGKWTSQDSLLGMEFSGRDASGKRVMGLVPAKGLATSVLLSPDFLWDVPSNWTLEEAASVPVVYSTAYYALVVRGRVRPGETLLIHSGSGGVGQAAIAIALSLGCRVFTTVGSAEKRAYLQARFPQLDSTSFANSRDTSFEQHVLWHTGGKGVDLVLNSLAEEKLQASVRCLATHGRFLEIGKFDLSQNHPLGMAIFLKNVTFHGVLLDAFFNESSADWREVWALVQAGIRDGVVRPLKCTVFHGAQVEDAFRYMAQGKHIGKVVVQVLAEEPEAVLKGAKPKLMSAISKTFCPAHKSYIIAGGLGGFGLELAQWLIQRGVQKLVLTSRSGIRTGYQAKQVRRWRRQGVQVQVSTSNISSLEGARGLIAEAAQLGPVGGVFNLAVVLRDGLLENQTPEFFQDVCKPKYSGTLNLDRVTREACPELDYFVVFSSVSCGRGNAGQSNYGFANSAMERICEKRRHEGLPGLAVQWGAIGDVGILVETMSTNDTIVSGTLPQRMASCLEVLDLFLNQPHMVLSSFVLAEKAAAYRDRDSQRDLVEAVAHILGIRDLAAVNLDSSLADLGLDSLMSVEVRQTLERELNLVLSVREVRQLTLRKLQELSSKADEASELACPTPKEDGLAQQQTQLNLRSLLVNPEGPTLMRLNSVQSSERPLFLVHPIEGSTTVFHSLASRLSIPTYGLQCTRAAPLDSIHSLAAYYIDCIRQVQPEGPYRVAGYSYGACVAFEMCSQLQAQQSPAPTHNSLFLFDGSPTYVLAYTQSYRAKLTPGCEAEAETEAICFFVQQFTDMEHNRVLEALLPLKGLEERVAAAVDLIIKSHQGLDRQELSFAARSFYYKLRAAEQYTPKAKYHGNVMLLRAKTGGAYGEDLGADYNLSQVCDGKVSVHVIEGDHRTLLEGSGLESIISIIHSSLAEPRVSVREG
T1 sequence (P49327 whole entry): as the sequence (P49327 whole entry, the tested form may be a part) above

Row | SMILES | IC50 (A2780 ovarian cells [1]) | IC50 (A2780 ovarian cells [2]) | IC50 [3] | inhibition at 10 µM [3] | IC50 [4]
1 | Cc1ccc(C(=O)N2CC[C@H](c3ccc(-n4ccnc4)cc3)[C@H](C)C2)cc1NC(=O)c1ccc(Cl)nc1 (racemic) [Compound 53, (±)-N-(5-((3S,4S)-4-(4-(1H-imidazol-1-yl)phenyl)-3-methylpiperidine-1-carbonyl)-2-methylphenyl)-6-chloronicotinamide] | 8510 nM | 603 nM | 251 nM | 101% | 562 nM
2 | Cc1ccc(C(=O)N2CC[C@H](c3ccc(-n4ccnc4)cc3)[C@@H](C)C2)cc1NC(=O)c1ccc(Cl)nc1 (racemic) [Compound 54, (±)-N-(5-(4-((3R,4S)-4-(1H-imidazol-1-yl)phenyl)-3-methylpiperidine-1-carbonyl)-2-methylphenyl)-6-chloronicotinamide] | > 10000 nM | 204 nM | 234 nM | 104% | 288 nM
3 | Cc1ccc(C(=O)N2CC[C@H](c3ccc(-c4ccnn4C)cc3)[C@H](C)C2)cc1NC(=O)c1ccc(NC(C)C)nc1 (racemic) [Compound #76, (±)-6-(Isopropylamino)-N-(2-methyl-5-((3S,4S)-3-methyl-4-(4-(1-methyl-1H-pyrazol-5-yl)phenyl)piperidine-1-carbonyl)phenyl)nicotinamide] | 2000 nM | 1050 nM | 631 nM | 91% | 1380 nM
4 | CC(C)Nc1ccc(C(=O)Nc2cc(C(=O)N3CC[C@H](c4ccc(-c5ccnn5C)cc4)[C@@H](O)C3)ccc2Cl)cn1 (racemic) [Compound #77, (±)-N-(2-chloro-5-((3R,4R)-3-hydroxy-4-(4-(1-methyl-1H-pyrazol-5-yl)phenyl)piperidine-1-carbonyl)phenyl)-6-(isopropylamino)nicotinamide] | 15100 nM | 851 nM | 178 nM | 105% | 1070 nM
5 | Cc1ccc(C(=O)N2CC[C@H](c3ccc(-c4ccnn4C)cc3)[C@@H](C)C2)cc1NC(=O)c1ccc(NC(C)C)nc1 (racemic) [Compound #81, (±)-6-(isopropylamino)-N-(2-methyl-5-((3R,4S)-3-methyl-4-(4-(1-methyl-1H-pyrazol-5-yl)phenyl)piperidine-1-carbonyl)phenyl)nicotinamide] | 4270 nM | 110 nM | ~32.4 nM | 120% | 100 nM
6 | Cc1ccc(C(=O)N2CC[C@H](c3ccc(-c4ccnn4C)cc3)[C@@H](C)C2)cc1NC(=O)c1ccc(Cl)nc1 (racemic) [Compound #110, (±)-6-Chloro-N-(2-methyl-5-((3R,4S)-3-methyl-4-(4-(1-methyl-1H-pyrazol-5-yl)phenyl)piperidine-1-carbonyl)phenyl)nicotinamide] | 6310 nM | 174 nM | 19.1 nM | 115% | 132 nM
7 | Cc1ccc(C(=O)N2CC[C@H](c3ccc(-c4ccnn4C)cc3)[C@H](C)C2)cc1NC(=O)c1ccc(Cl)nc1 (racemic) [Compound #111, (±)-6-chloro-N-(2-methyl-5-((3S,4S)-3-methyl-4-(4-(1-methyl-1H-pyrazol-5-yl)phenyl)piperidine-1-carbonyl)phenyl)nicotinamide] | 4470 nM | 1620 nM | 513 nM | 96% | 1780 nM
8 | CCC(=O)NC1CC[C@@H](C(=O)Nc2cc(C(=O)N3CC(c4ccc(-c5ccnn5C)cc4)C3)ccc2C)C1 (stereo in doubt) [Compound 64, (1R,3S)—N-(2-methyl-5-(3-(4-(1-methyl-1H-pyrazol-5-yl)phenyl)azetidine-1-carbonyl)phenyl)-3-propionamidocyclopentanecarboxamide] | > 10000 nM | ~302 nM | 34.7 nM | 102% | 85.1 nM
9 | Cc1ccc(C(=O)N2CC(c3ccc(-c4ccncc4)cc3)C2)cc1NC(=O)c1ccc(Cl)nc1 [Compound 3, 6-chloro-N-(2-methyl-5-(3-(4-(pyridin-4-yl)phenyl)azetidine-1-carbonyl)phenyl)nicotinamide] | 5250 nM | 138 nM | 25.7 nM | 106% | 64.6 nM
10 | Cc1ccc(C(=O)N2CC(c3ccc(-c4cnn(C)c4)cc3)C2)cc1NC(=O)c1ccc(Cl)nc1 [Compound 4, 6-chloro-N-(2-methyl-5-(3-(4-(1-methyl-1H-pyrazol-4-yl)phenyl)azetidine-1-carbonyl)phenyl)nicotinamide] | > 10000 nM | 174 nM | 39.8 nM | 109% | 97.7 nM
11 | Cc1ccc(C(=O)N2CCC(c3ccc(-c4cnn(C)c4)cc3)CC2)cc1NC(=O)c1ccccc1 [Compound 115, N-(2-methyl-5-(4-(4-(1-methyl-1H-pyrazol-4-yl)phenyl)piperidine-1-carbonyl)phenyl)benzamide] | > 10000 nM | 162 nM | – | 99% | –
12 | COc1ncccc1C(=O)Nc1cc(C(=O)N2CCC(c3ccc(-c4cnn(C)c4)cc3)CC2)ccc1C [Compound 118, 2-methoxy-N-(2-methyl-5-(4-(4-(1-methyl-1H-pyrazol-4-yl)phenyl)piperidine-1-carbonyl)phenyl)nicotinamide] | 2750 nM | 389 nM | – | – | 288 nM
13 | COc1ccc(C(=O)N2CC(c3ccc(-c4cnn(C)c4)cc3)C2)cc1NC(=O)c1ccc(Cl)nc1 [Compound 183, 6-chloro-N-(2-methoxy-5-(3-(4-(1-methyl-1H-pyrazol-4-yl)phenyl)azetidine-1-carbonyl)phenyl)nicotinamide] | > 10000 nM | 407 nM | – | 98% | –
